Key:
[1] = Polarographic study of electrochemical reduction (electrochemical activity); format: physicochemical; conditions: for number of electrons participating in the reduction: calculated with the Geirovsky-Ilkovich equation; for i, mkA (polarographic wave current) / −E1/2, V (half-wave potential vs SCE): 37° C., forward trace, average for the group; for i, mkA (polarographic wave current): 9·10^−4 M; for half-wave potential more positive on reverse stroke than on forward stroke: reverse stroke vs forward stroke
Experimental: The study was carried out on a general-purpose polarograph PU-1 with a two-coordinate recorder of the “LKD” type using a three-electrode thermostatically controlled polarographic cell and mercury dripping electrode (MDE) with forced separation of the drop and a dropping period of 0.5 second. A platinum wire was used as an auxiliary electrode and a saturated calomel electrode (SCE) was used as a control electrode.
2.0% solutions of sodium chloride having pH 7.0, 7.2, 7.4, 7.6 were used as a background; the pH values of the background solution were corrected by a solution of sodium hydroxide. The polarographic cell was filled with 5.0 ml of the background solution and for 5 minutes was purged with nitrogen for removing the dissolved oxygen. Then 0.5 ml of solution of the studied substance was added to the background solution, and the polarogram was recorded as a polarographic wave. The concentration of the compounds in the polarographic cell was 9·10^−4 M.
The pH was measured on the pH-meter with an accuracy of ±0.05 pH units. The polarographic measurements were carried out at a temperature of 37° C. The recording of polarograms of the investigated materials was effected under conditions of DC current at a scanning rate of the potential 10.0 mV/s with a active scanning stroke from a potential 0 to −0.5 V and sweep retrace from a −0.5 V to 0. The electric-current sensitivity was 5.0 mkA. The scale by the coordinate of the potentials was 50.0 mV/cm. The values of potentials of the half-wave E1/2 of the investigated materials are given with respect to the SCE potential.
The polarogram parameters such as a limiting current ilim and E1/2 were determined by the graphic method. The number of electrons participating in the reaction was calculated on the basis of the analysis of the polarographic wave using the Geirovsky-Ilkovich equation.

[2] = tested on: embyronic fibroblasts of mouse NIH-3T3; assay: Endocellular pHi of fibroblasts by microspectrofluorimetry (FDA, BCECF-AM); format: cell-based; conditions: for rise of pHi: fibroblasts in an attached spread state; for increase of pHi: 20 minutes
Experimental: The effect of the compounds according to the invention on the endocellular pH, embyronic fibroblasts of mouse NIH-3T3 supplied by the All-Russian Collection of Cellular Cultures of the Institute of Cytology of the Russian Academy of Sciences St. Petersburg was investigated. The cells were grown in the DMEM (Sigma) medium containing 2.2 g/l of sodium bicarbonate with addition of 80.0 mkg/ml of gentamicin and 10.0% embryonal veal serum at a temperature of 37° C. in an atmosphere containing 5.0% of carbon dioxide. For these experiments use was also made of a medium buffer with 5.0 mM of HEPES and 15.0 mM of sodium bicarbonate without serum or with addition of 5.0% serum. The cells were calculated with the help of a hemocytometer. A share of the dead cells was determined by colouring trypan blue.
The measurements of the endocellular pHi were carried out with the help of colorants FDA (Sigma) and BCECF-AM (Calbiochem) on a microspectrofluorimeter by a standard technique (Koshevoy Yu. V., Akatov V. S., Grobova M. E. Microspectrofluorimeter for measuring endocellular pH (micro pH)”. Devices and equipment for studies in the field of physical-and-chemical biology and biotechnology. Pushchino, 1990. P. 8-14).
The cells at a temperature of 37° C. were colored within 5 minutes with 5.0 mkM PDA that before the colouring was prepared from a 10.0 mM solution in acetone by dilution for 30 minutes in a phosphatic buffer to 0.1 mM or 2.0 mkM 1.0 mM solution BCECF-AM in DMSO.
The two-wave method of determining pHi was used based on the ratio intensities of fluorescence of the cells on two wavelengths (Akatov V. S. et all), “Endocellular pH and substrate dependence of proliferation of fibroblasts of Chinese hamster, Cytology, 1991, 33 (7), p. 86-94). The fluorescence was excited by light at λ=490 nm, the emission was recorded simultaneously with two photomultipliers on wavelengths λ=535 nm and λ=570 nm. The K-ratio of the fluorescence on two wavelengths was determined with a deduction of the background fluorescence of the medium near the investigated cells for 40-60 individual cells, which are then averaged taking into account the measurement error. A thermostatically controlled table was used that allowed measurements to be conducted at a temperature of 37° C. An account was taken for the photodynamic damage of the pigmented cells during-long-time continuous illumination by excited light. The readings were taken from a section of the preparation exposed to light for not more than 5 minutes.
The calibration curves for determining the absolute pHi values by magnitude K were constructed using the Thomas technique (Thomas J. A., Bushbaum R. N., Zimniak A. w Racker E. “Intracellular pH measurements in Ehrlich ascites tumor cells utilizing spectroscopic probe generated in situ”, Biochemistry, 1979, v. 18, p. 2210-2218), for which case the pigmented cells treated for 5-10 minutes with carboxyacidic nigericyn (Calbiochem) at a concentration of 5-10 mkg/ml was placed in a solution with a high content of potassium—130 mM KCl, 1.0 mM MgCl2, 20.0 mM of HEPES) and with pH values from 6.2 to 7.6. The K values were measured in the media with different pH assuming that pHi of the cells equals to the pH of the medium due to the action of nigericyn, which exchanges potassium ions for protons and at a high content of potassium in the medium counterbalances the pH of the medium and cells. Calibration curves were used based on the fluorescence of same medium with addition of 5.0 mkM of fluorescence or BCECF were used to the control the stability of the of the instrument readings.
The correctness of the technique was confirmed in the experiments on measurements of pH values of cells treated with protonofor monencine raising pH of the cells due to replacement of sodium ions by protons, and by determining the dependence of the change of pHi on the change of the pH of the medium. […]

[3] = medium with 10.0% blood serum, 0.02 mkg/ml, suspension
[4] = medium with 10.0% blood serum, 0.2 mkg/ml, suspension
[5] = medium with 10.0% blood serum, 2.0 mkg/ml, suspension
[6] = medium with 10.0% blood serum, 20.0 mkg/ml, suspension
[7] = medium without blood serum, 0.02 mkg/ml
[8] = medium without blood serum, 0.2 mkg/ml
[9] = medium without blood serum, 2.0 mkg/ml
[10] = medium without blood serum, 20.0 mkg/ml
[11] = medium without blood serum, 200 mkg/ml
[12] = medium without blood serum, 1000 mkg/ml

Row | SMILES | number of electrons participating in the reduction [1] | i, mkA (polarographic wave current) ([1]; pH 7.0) [mkA] | −E1/2, V (half-wave potential vs SCE) ([1]; pH 7.0) [V] | i, mkA (polarographic wave current) ([1]; pH 7.2) [mkA] | i, mkA (polarographic wave current) ([1]; pH 7.4) [mkA] | −E1/2, V (half-wave potential vs SCE) ([1]; pH 7.4) [V] | i, mkA (polarographic wave current) ([1]; pH 7.6) [mkA] | −E1/2, V (half-wave potential vs SCE) ([1]; pH 7.6) [V] | half-wave potential more positive on reverse stroke than on forward stroke [1] [mV] | rise of pHi ([2]; 2.0 mkg/ml) [unit pHi] | rise of pHi ([2]; 20.0 mkg/ml) [unit pHi] | increase of pHi [2, 3] | increase of pHi [2, 4] [unit pH] | increase of pHi [2, 5] [unit pH] | increase of pHi [2, 6] | increase of pHi [2, 7] | increase of pHi [2, 8] | increase of pHi [2, 9] [unit pHi] | increase of pHi [2, 10] [unit pHi] | increase of pHi [2, 11] | other results
1 | O=c1[nH][nH]c(=O)c2ncncc12.[Li] [Compound 35, lithium salt of pyrimido[4,5-d]-6H-pyridazine-5,8-dione] | 3.5 | 0.30 ± 0.05 | 0.08 ± 0.02 | 0.26 ± 0.02 | 0.30 ± 0.03 | 0.085 ± 0.02 | 0.30 ± 0.02 | 0.09 ± 0.02 | 27.0 | 0.10 | 0.07 | do not initiate a change of pH | 0.1 | 0.12 | do not initiate a change of pH | no effect was found | no effect was found | 0.08 | 0.08 | no effect was found | increase of pHi [2, 12]: no effect was found
2 | O=C([O-])c1ccc2c(=O)[nH][nH]c(=O)c2c1.O=C([O-])c1ccc2c(=O)[nH][nH]c(=O)c2c1.[Na+].[Na+] [Compound 18, disodium salt of 6-carboxy-benzo[d]-3H-pyridazine-1,4-dione] | 4.09 | 0.23 ± 0.03 | 0.092 ± 0.02 | 0.30 ± 0.01 | 0.29 ± 0.02 | 0.092 ± 0.02 | 0.31 ± 0.02 | 0.09 ± 0.01 | 30.0 | 0.10 | 0.07 | do not initiate a change of pH | 0.1 | 0.12 | do not initiate a change of pH | no effect was found | no effect was found | 0.08 | 0.08 | no effect was found | −E1/2, V (half-wave potential vs SCE) ([1]; pH 7.2): 0.09 ± 0.01 V; increase of pHi [2, 12]: no effect was found
3 | O=c1[nH][nH]c(=O)c2ncccc12.[Na] [Compound 7, sodium salt of pyrido[2,3-d]-6H-pyridazine-5,8-dione] | 3.72 | 0.26 ± 0.04 | 0.11 ± 0.02 | 0.31 ± 0.02 | 0.27 ± 0.03 | 0.105 ± 0.01 | 0.30 ± 0.01 | 0.105 ± 0.02 | 25.0 | 0.10 | 0.07 | do not initiate a change of pH | 0.1 | 0.12 | do not initiate a change of pH | no effect was found | no effect was found | 0.08 | 0.08 | no effect was found | −E1/2, V (half-wave potential vs SCE) ([1]; pH 7.2): 0.11 ± 0.03 V; increase of pHi [2, 12]: no effect was found

Reference: patent publication US20070166547A1, “Use of a layer consisting of hydrophobic linear, or two-dimensional polycyclic aromatics as a barrier layer or an encapsulation and electric components constructed with a layer of this type and comprising organic polymers” (priority 2003, published 2007)
